Test results: US9006433B2, “Substituted pyrimidines” (Merck Sharp & Dohme Corp., priority 2010, dated 2015)

target: T1, PHD2 (Homo sapiens, UniProt Q9GZT9); test: PHD2 inhibition assay (time resolved fluorescence, HIF-1α peptide hydroxylation / VHL complex detection); format: biochemical; conditions: FLAG-tagged full length PHD2; 0.2 μM 2-oxoglutarate, 0.5 μM HIF-1α peptide
T1 construct: FLAG-tagged full length PHD2 expressed in and purified from baculovirus-infected Sf9 cells; FLAG; made in house; host or cells: baculovirus-infected Sf9 cells
T1 sequence (Q9GZT9 whole entry, species assumed): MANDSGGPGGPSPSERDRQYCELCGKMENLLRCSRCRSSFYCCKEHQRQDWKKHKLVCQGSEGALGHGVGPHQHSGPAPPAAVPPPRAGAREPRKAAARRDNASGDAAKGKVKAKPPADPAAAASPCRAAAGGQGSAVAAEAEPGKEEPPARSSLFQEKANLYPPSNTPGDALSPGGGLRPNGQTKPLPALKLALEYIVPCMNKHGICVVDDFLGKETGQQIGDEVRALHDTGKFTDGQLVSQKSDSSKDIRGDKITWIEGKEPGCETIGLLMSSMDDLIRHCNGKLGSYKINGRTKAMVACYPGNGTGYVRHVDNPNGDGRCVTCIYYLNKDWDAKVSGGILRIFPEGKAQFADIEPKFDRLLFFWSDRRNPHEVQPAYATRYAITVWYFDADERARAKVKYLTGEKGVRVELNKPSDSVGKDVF
Description: To each well of a 96-well plate was added 1 μL of test compound in DMSO and 20 μl of assay buffer (50 mM Iris pH 7.4/0.01% Tween-20/0.1 mg/ml bovine serum albumin/10 μM ferrous sulfate/1 mM sodium ascorbate/20 μg/ml catalase) containing 0.15 μg/ml FLAG-tagged full length PHD2 expressed in and purified from baculovirus-infected Sf9 cells. After a 30 min preincubation at room temperature, the enzymatic reactions were initiated by the addition of […] of substrates (final concentrations of 0.2 μM 2-oxoglutarate and 0.5 μM HIF-1α peptide biotinyl-DLDLEMLAPYIPMDDDFQL (SEQ ID NO:1)). After 2 hr at room temperature, the reactions were terminated and signals were developed by the addition of a 25 μL quench/detection mix to a final concentration of 1 mM ortho-phenanthroline, 0.1 mM EDTA, 0.5 nM anti-(His)6 LANCE reagent (Perkin-Elmer Life Sciences), 100 nM AF647-labeled streptavidin (Invitrogen), and 2 μg/ml (His)-6-VHL complex (S. Tan(2001) Protein Expr. Purif. 21, 224-234). The ratio of time resolved fluorescence signals at 665 and 620 nm was determined, and percent inhibition was calculated relative to an uninhibited control sample run in parallel.

Row | SMILES | IC50 [nM]
1 | CC(NC(=O)Nc1cnc(-n2cccn2)nc1O)c1ccccc1 (centres unmarked) [Compound 5-3, 1-(4-hydroxy-2-(1H-pyrazol-1-yl)pyrimidin-5-yl)-3-(1-phenylethyl)urea] | 0.5 to 20
2 | CC(C)(C)OC(=O)N1CCC(C(=O)Nc2cnc(-n3cccn3)nc2O)C1 (centres unmarked) [Compound 3-51, tert-butyl 3-(4-hydroxy-2-(1H-pyrazol-1-yl)pyrimidin-5-ylcarbamoyl)pyrrolidine-1-carboxylate] | 20 to 100
3 | COc1cccc(C(=O)Nc2cnc(-n3cccn3)nc2O)c1 [Compound 3-12, N-(4-hydroxy-2-(1H-pyrazol-1-yl)pyrimidin-5-yl)-3-methoxybenzamide] | 20 to 100
4 | N#Cc1ccccc1C(=O)Nc1cnc(-n2cccn2)nc1O [Compound 3-7, 2-cyano-N-(4-hydroxy-2-(1H-pyrazol-1-yl)pyrimidin-5-yl)benzamide] | 100 to 10000
5 | CCCCOC(=O)Nc1cnc(-n2cccn2)nc1O [Compound 5-13, butyl 4-hydroxy-2-(1H-pyrazol-1-yl)pyrimidin-5-ylcarbamate] | 100 to 10000
6 | O=C(Cc1cnc(-n2cccn2)nc1O)Nc1ccc(Cl)cc1 [Compound 12-1, N-(4-chlorophenyl)-2-(4-hydroxy-2-(1H-pyrazol-1-yl)pyrimidin-5-yl)acetamide] | 100 to 10000
7 | Oc1nc(-n2cccn2)ncc1-c1cnn(Cc2ccccc2)c1 [Compound 11-2, 5-(1-benzyl-1H-pyrazol-4-yl)-2-(1H-pyrazol-1-yl)pyrimidin-4-ol] | 100 to 10000
8 | CC(C)C(C(=O)Nc1cnc(-n2cccn2)nc1O)c1ccccc1 (centres unmarked) [Compound 3-35, N-(4-hydroxy-2-(1H-pyrazol-1-yl)pyrimidin-5-yl)-3-methyl-2-phenylbutanamide] | 20 to 100
9 | O=C(Nc1cnc(-n2cccn2)nc1O)Oc1ccccc1 [Compound 5-9, phenyl 4-hydroxy-2-(1H-pyrazol-1-yl)pyrimidin-5-ylcarbamate] | 100 to 10000
10 | O=C(OC(c1ccccc1)c1ccccc1)c1cnc(-n2cccn2)nc1O [Compound 9-1, benzhydryl 4-hydroxy-2-(1H-pyrazol-1-yl)pyrimidine-5-carboxylate] | 100 to 10000
11 | O=C(Nc1cnc(-n2cccn2)nc1O)Oc1ccc2ccccc2c1 [Compound 5-18, naphthalen-2-yl 4-hydroxy-2-(1H-pyrazol-1-yl)pyrimidin-5-ylcarbamate] | 100 to 10000
12 | CC(C)(C)OC(=O)N1CCC(C(=O)Nc2cnc(-n3cccn3)nc2O)CC1 [Compound 3-47, tert-butyl4-(4-hydroxy-2-(1H-pyrazol-1-yl)pyrimidin-5-ylcarbamoyl)piperidine-1-carboxylate] | 0.5 to 20
13 | O=C(NCc1ccccc1)Nc1cnc(-n2cccn2)nc1O [Compound 5-2, 1-benzyl-3-(4-hydroxy-2-(1H-pyrazol-1-yl)pyrimidin-5-yl)urea] | 0.5 to 20
14 | O=C(Nc1cnc(-n2cccn2)nc1O)Oc1ccc(-c2ccccc2)cc1 [Compound 5-17, biphenyl-4-yl 4-hydroxy-2-(1H-pyrazol-1-yl)pyrimidin-5-ylcarbamate] | 100 to 10000
